In one assay the test system is HeLa-MaTu-ADR cells. The experiment in a line: Proliferation assay, HeLa-MaTu-ADR (Method 3). In kind it is cell-based, human. To be noted: 4 days, crystal violet, read-out: Inhibition of HeLa-MaTu-ADR cell proliferation IC50. The method, then:
(§1) Cultivated tumour cells (HeLa, human cervical tumour cells, ATCC CCL-2; NCI-H460, human non-small cell lung carcinoma cells, ATCC HTB-177; A2780, human ovarian carcinoma cells, ECACC #93112519; DU 145, hormone-independent human prostate carcinoma cells, ATCC HTB-81; HeLa-MaTu-ADR, multidrug-resistant human cervical carcinoma cells, EPO-GmbH Berlin; Caco-2, human colorectal carcinoma cells, ATCC HTB-37; B16F10, mouse melanoma cells, ATCC CRL-6475) were plated at a density of 5,000 cells/well (DU145, HeLa-MaTu-ADR), 3,000 cells/well (NCI-H460, HeLa), 2,500 cells/well (A2780), 1,500 cells/well (Caco-2), or 1,000 cells/well (B16F10) in a 96-well multititer plate in 200 μL of their respective growth medium supplemented 10% fetal calf serum. After 24 hours, the cells of one plate (zero-point plate) were stained with crystal violet (see below), while the medium of the other plates was replaced by fresh culture medium (200 μl), to which the test substances were added in various concentrations (0 μM, as well as in the range of 0.001-10 μM; the final concentration of the solvent dimethyl sulfoxide was 0.5%). The cells were incubated for 4 days in the presence of test substances. Cell proliferation was determined by staining the cells with crystal violet: the cells were fixed by adding 20 μl/measuring point of an 11% glutaric aldehyde solution for 15 minutes at room temperature. After three washing cycles of the fixed cells with water, the plates were dried at room temperature. The cells were stained by adding 100 μl/measuring point of a 0.1% crystal violet solution (pH 3.0). After three washing cycles of the stained cells with water, the plates were dried at room temperature. The dye was dissolved by adding 100 μl/measuring point of a 10% acetic acid solution. The extinction was determined by photometry at a wavelength of 595 nm. The change of cell number, in percent, was calculated by normalization of the measured values to the extinction values of the zero-point plate (=0%) and the extinction of the untreated (0 μm) cells (=100%). The IC50 values (inhibitory concentration at 50% of maximal effect) were determined by means of a 4 parameter fit.

In the next assay the test system is B16F10 cells. In words: Proliferation assay, B16F10 (Method 3). Conditions: 4 days, crystal violet, read-out: Inhibition of B16F10 cell proliferation IC50. The assay is classed as cell-based, mouse. As for the experimental part:
as §1

Another assay has as its system A2780 cells. The experiment in a line: Proliferation assay, A2780 (Method 3). The assay is classed as cell-based, human. Conditions: 4 days, crystal violet, read-out: Inhibition of A2780 cell proliferation IC50. The method, then:
as §1

In a further assay the target is T1, CDK9/CycT1 (Homo sapiens, UniProt P50750).
T1 construct: Recombinant full-length His-tagged human CDK9 and CycT1; His; purchased Invitrogen PV4131; host or cells: insect cells
In words: CDK9/CycT1 kinase assay (Method 1a). In kind it is biochemical. To be noted: 10 μM ATP. The text has this:
1a. CDK9/CycT1 Kinase Assay:
CDK9/CycT1-inhibitory activity of compounds of the present invention was quantified employing the CDK9/CycT1 TR-FRET assay as described in the following paragraphs:
Recombinant full-length His-tagged human CDK9 and CycT1, expressed in insect cells and purified by Ni-NTA affinity chromatography, were purchased from Invitrogen (Cat. No PV4131). As substrate for the kinase reaction biotinylated peptide biotin-Ttds-YISPLKSPYKISEG (C-terminus in amid form) was used which can be purchased e.g. form the company JERINI Peptide Technologies (Berlin, Germany) For the assay 50 nl of a 100 fold concentrated solution of the test compound in DMSO was pipetted into a black low volume 384 well microtiter plate (Greiner Bio-One, Frickenhausen, Germany), 2 μl of a solution of CDK9/CycT1 in aqueous assay buffer [50 mM Tris/HCl pH 8.0, 10 mM MgCl2, 1.0 mM dithiothreitol, 0.1 mM sodium ortho-vanadate, 0.01% (v/v) Nonidet-P40 (Sigma)] were added and the mixture was incubated for 15 min at 22° C. to allow pre-binding of the test compounds to the enzyme before the start of the kinase reaction. Then the kinase reaction was started by the addition of 3 μl of a solution of adenosine-tri-phosphate (ATP, 16.7 μM=>final conc. in the 5 μl assay volume is 10 μM) and substrate (1.67 μM=>final conc. in the 5 μl assay volume is 1 μM) in assay buffer and the resulting mixture was incubated for a reaction time of 25 min at 22° C. The concentration of CDK9/CycT1 was adjusted depending of the activity of the enzyme lot and was chosen appropriate to have the assay in the linear range, typical concentrations were in the range of 1 μg/ml. The reaction was stopped by the addition of 5 μl of a solution of TR-FRET detection reagents (0.2 μM streptavidine-XL665 [Cisbio Bioassays, Codolet, France] and 1 nM anti-RB(pSer807/pSer811)-antibody from BD Pharmingen [#558389] and 1.2 nM LANCE EU-W1024 labeled anti-mouse IgG antibody [Perkin-Elmer, product no. AD0077]) in an aqueous EDTA-solution (100 mM EDTA, 0.2% (w/v) bovine serum albumin in 100 mM HEPES/NaOH pH 7.0).
The resulting mixture was incubated 1 h at 22° C. to allow the formation of complex between the phosphorylated biotinylated peptide and the detection reagents. Subsequently the amount of phosphorylated substrate was evaluated by measurement of the resonance energy transfer from the Eu-chelate to the streptavidine-XL. Therefore, the fluorescence emissions at 620 nm and 665 nm after excitation at 350 nm was measured in a HTRF reader, e.g. a Rubystar (BMG Labtechnologies, Offenburg, Germany) or a Viewlux (Perkin-Elmer). The ratio of the emissions at 665 nm and at […] was taken as the measure for the amount of phosphorylated substrate. The data were normalised (enzyme reaction without inhibitor=0% inhibition, all other assay components but no enzyme=100% inhibition).

The structures appear in SMILES notation. Read-outs that look alike come from different tables or passages of the source.

T1 sequence (P50750 whole entry): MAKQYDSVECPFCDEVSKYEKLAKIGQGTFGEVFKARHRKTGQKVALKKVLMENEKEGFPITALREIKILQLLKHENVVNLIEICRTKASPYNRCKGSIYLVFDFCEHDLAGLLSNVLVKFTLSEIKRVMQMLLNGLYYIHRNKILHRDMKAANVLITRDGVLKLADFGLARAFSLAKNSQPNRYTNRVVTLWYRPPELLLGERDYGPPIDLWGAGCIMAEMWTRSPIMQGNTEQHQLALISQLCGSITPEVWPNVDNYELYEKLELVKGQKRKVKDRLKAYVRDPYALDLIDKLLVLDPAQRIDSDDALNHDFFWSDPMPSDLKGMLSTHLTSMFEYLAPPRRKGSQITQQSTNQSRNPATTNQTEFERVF
T1 sequence (O60563 whole entry partner): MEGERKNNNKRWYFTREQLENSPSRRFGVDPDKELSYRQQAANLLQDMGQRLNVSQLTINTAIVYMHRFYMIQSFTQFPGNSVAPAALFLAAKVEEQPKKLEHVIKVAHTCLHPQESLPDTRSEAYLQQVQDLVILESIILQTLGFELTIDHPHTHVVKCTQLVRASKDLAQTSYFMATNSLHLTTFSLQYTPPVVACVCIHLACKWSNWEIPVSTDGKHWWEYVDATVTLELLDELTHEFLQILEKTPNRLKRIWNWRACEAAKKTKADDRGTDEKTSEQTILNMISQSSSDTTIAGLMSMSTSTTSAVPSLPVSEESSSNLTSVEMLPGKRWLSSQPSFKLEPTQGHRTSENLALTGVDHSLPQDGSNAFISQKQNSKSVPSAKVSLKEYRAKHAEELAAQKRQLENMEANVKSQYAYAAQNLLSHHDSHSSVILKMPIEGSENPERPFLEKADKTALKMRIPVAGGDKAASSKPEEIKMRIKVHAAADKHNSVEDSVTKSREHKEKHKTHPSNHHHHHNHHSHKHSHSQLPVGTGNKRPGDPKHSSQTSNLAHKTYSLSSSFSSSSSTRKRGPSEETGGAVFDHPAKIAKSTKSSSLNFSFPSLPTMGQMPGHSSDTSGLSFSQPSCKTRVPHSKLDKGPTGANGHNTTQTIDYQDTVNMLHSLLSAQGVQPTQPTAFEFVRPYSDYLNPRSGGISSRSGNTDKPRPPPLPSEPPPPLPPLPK

`COc1cc(F)ccc1-c1cc(Nc2cc(CS(C)(=N)=O)ccn2)ncn1` (racemic) [Example 1, (rac)-6-(4-Fluoro-2-methoxyphenyl)-N-{4-[(S-methylsulfonimidoyl)methyl]pyridin-2-yl}pyrimidin-4-amine]: the IC50 in the assay with HeLa-MaTu-ADR cells (Homo sapiens, 96 h) came out at 335 nM; in the assay on B16F10 cells (Mus musculus, B16-F10, 96 h), 488 nM; with A2780 cells (Homo sapiens, A2780, 96 h), 60 nM; against CDK9/CycT1, 5 nM.
The matching figures for `COc1cc(F)ccc1-c1cc(Nc2cc(CS(C)(=N)=O)cc(Cl)n2)ncn1` (racemic) [Example 4, (rac)-N-{6-Chloro-4-[(S-methylsulfonimidoyl)methyl]pyridin-2-yl}-6-(4-fluoro-2-methoxyphenyl)pyrimidin-4-amine]: 97 nM, 215 nM, 62 nM and 4 nM.
As for `COc1cc(F)ccc1-c1cc(Nc2cc(CS(C)(=N)=O)cc(C)n2)ncn1` (racemic) [Example 7, (rac)-6-(4-Fluoro-2-methoxyphenyl)-N-{6-methyl-4-[(S-methylsulfonimidoyl)methyl]pyridin-2-yl}pyrimidin-4-amine], the IC50 in the assay on HeLa-MaTu-ADR cells (Homo sapiens, 96 h) was 217 nM; in the assay on B16F10 cells (Mus musculus, B16-F10, 96 h) it was 216 nM; with A2780 cells (Homo sapiens, A2780, 96 h) it was 35 nM; against CDK9/CycT1, 5 nM.
In the case of `COc1cc(F)ccc1-c1cc(Nc2cc(CS(C)(=N)=O)cc(C(F)(F)F)n2)ncn1` (racemic) [Example 10, (rac)-6-(4-Fluoro-2-methoxyphenyl)-N-{4-[(S-methylsulfonimidoyl)methyl]-6-(trifluoromethyl)pyridin-2-yl}pyrimidin-4-amine], the IC50 was 104 nM in the assay with HeLa-MaTu-ADR cells (Homo sapiens, 96 h); 100 nM with B16F10 cells (Mus musculus, B16-F10, 96 h); 32 nM in the assay with A2780 cells (Homo sapiens, A2780, 96 h); 5 nM against CDK9/CycT1.
In the case of `COc1cc(F)ccc1-c1cc(Nc2cc(CS(C)(=N)=O)ccn2)ncn1` (single isomer, unassigned) [Example 2, 6-(4-Fluoro-2-methoxyphenyl)-N-{4-[(S-methylsulfonimidoyl)methyl]pyridin-2-yl}pyrimidin-4-amine], the IC50 in the assay with A2780 cells (Homo sapiens, A2780, 96 h) is 193 nM; on CDK9/CycT1, 9 nM.
On to `COc1cc(F)ccc1-c1cc(Nc2cc(CS(C)(=N)=O)ccn2)ncn1` (single isomer, unassigned) [Example 3, 6-(4-Fluoro-2-methoxyphenyl)-N-{4-[(S-methylsulfonimidoyl)methyl]pyridin-2-yl}pyrimidin-4-amine], for which the values for the IC50 in the assay on A2780 cells and against CDK9/CycT1 were 126 nM and 4 nM, respectively.
For `COc1cc(F)ccc1-c1cc(Nc2cc(CS(C)(=N)=O)cc(Cl)n2)ncn1` (single isomer, unassigned) [Example 5, N-{6-Chloro-4-[(S-methylsulfonimidoyl)methyl]pyridin-2-yl}-6-(4-fluoro-2-methoxyphenyl)pyrimidin-4-amine], the IC50 with HeLa-MaTu-ADR cells (Homo sapiens, 96 h) is 109 nM; in the assay on B16F10 cells (Mus musculus, B16-F10, 96 h), 122 nM; in the assay with A2780 cells (Homo sapiens, A2780, 96 h), 34 nM; against CDK9/CycT1 it was 5 nM.
Regarding `COc1cc(F)ccc1-c1cc(Nc2cc(CS(C)(=N)=O)cc(Cl)n2)ncn1` (single isomer, unassigned) [Example 6, N-{6-Chloro-4-[(S-methylsulfonimidoyl)methyl]pyridin-2-yl}-6-(4-fluoro-2-methoxyphenyl)pyrimidin-4-amine], the IC50 with HeLa-MaTu-ADR cells was 111 nM; in the assay with B16F10 cells, 123 nM; with A2780 cells it was 39 nM; against CDK9/CycT1 it was 4 nM.
`COc1cc(F)ccc1-c1cc(Nc2cc(CS(C)(=N)=O)cc(C)n2)ncn1` (single isomer, unassigned) [Example 8, 6-(4-Fluoro-2-methoxyphenyl)-N-{6-methyl-4-[(S-methylsulfonimidoyl)methyl]pyridin-2-yl}pyrimidin-4-amine]: the IC50 in the assay with HeLa-MaTu-ADR cells (Homo sapiens, 96 h) was 112 nM; with B16F10 cells (Mus musculus, B16-F10, 96 h), 284 nM; in the assay on A2780 cells (Homo sapiens, A2780, 96 h), 36 nM; against CDK9/CycT1, 4 nM.
As for `COc1cc(F)ccc1-c1cc(Nc2cc(CS(C)(=N)=O)cc(C)n2)ncn1` (single isomer, unassigned) [Example 9, 6-(4-Fluoro-2-methoxyphenyl)-N-{6-methyl-4-[(S-methylsulfonimidoyl)methyl]pyridin-2-yl}pyrimidin-4-amine], the IC50 in the assay on HeLa-MaTu-ADR cells stood at 178 nM; in the assay with B16F10 cells, 205 nM; with A2780 cells it was 39 nM; on CDK9/CycT1, 4 nM.

The record behind these values is patent US9650361B2, “N-(pyridin-2-yl)pyrimidin-4-amine derivatives containing a sulfoximine group” (BAYER PHARAM AKTIENGESELLSCHAFT, priority 2012, dated 2017).
